Measured values as given in US6846937B2, “Method for the selective removal of acyl-functionality attached to the 2'-hydroxy-group of paclitaxel-related derivatives” (The University of Toledo, priority 2001, dated 2005).

How the values were obtained:
[1] = Alcoholysis of 2′-acyl group followed by analytical HPLC (Examples 1-4); format: physicochemical
Text: As part of research to better understand the interaction of PAC-related compounds with various components within cancer cells,^11,12 the inventors deployed CAC protection of both PAC and 10-deacetylpaclitaxel (DAP) (FIG. 4). During purification of various mixtures of the three predominate CAC derivatives obtained for DAP, namely the 2′-mono-, the 2′,7-bis- and the 2′,7,10-tri-CAC protected materials, the 2′-adducts appeared to be unstable when allowed to stand for prolonged periods in methanol. Testing purified materials on a 1 mg scale confirmed this observation. Moving to a larger sample, a 40 mL solution of 2′,7-bis-CAC-DAP was then examined at a concentration of 1 mg/mL. Methanolysis of the 2′-adduct was complete after 48 hours at ambient temperature. The exclusive product was isolated by evaporation of solvent, washed with cold water, and its structure characterized as 7-mono-CAC-DAP according to NMR (FIG. 5-Table 2) and elemental analysis. […] In this case the structural integrity for the latter was additionally confirmed by its independent synthesis analogous to a literature procedure^4 wherein after treatment of PAC with chloroacetic anhydride in pyridine, the reaction mixture was subjected to 10 mM ammonia at room temperature for 1 hour prior to preparative HPLC separation of the resulting mixture of esters.
7-Monochloroacetyl-10-deactylpaclitaxel (7-CAC-DAP) (2). 2′,7-bis-CAC-DAP (1) (30 mg, 0.031 mmol) was dissolved in 40 mL of methanol (HPLC grade) and left at ambient temperature. 20 μL samples were withdrawn at several hour intervals and analyzed directly by HPLC. The conversion was complete in 48 hrs. Solvent was evaporated to dryness leaving a glossy residue which crystallized upon addition of water. Yield: 25 mg (0.028 mmol) having 97% purity by HPLC; mp 163-166° C.; Analytical HPLC RT=24 min. (Discovery column); Elemental Analysis calculated for formula C47H50ClNO14: C, 63.55%; H, 5.67%; N, 1.58%. Found: C, 63.08%; H, 5.97%; N, 1.63%.
7-Monochloroacetylpaclitaxel (7-CAC-PAC) (4). 1 mg of 2′,7-bis-CAC-PAC (3) was dissolved in 1 mL of methanol and the solution left at ambient temperature. 20 μL samples were withdrawn at several hour intervals and directly analyzed by HPLC. The conversion was complete in 48 hours. […] (Discovery column); Elemental Analysis calculated for formula C49H52Cl NO15: C, 63.26%; H, 5.63%; N, 1.51%. […]
7-Methoxyacetylpaclitaxel (7-MAC-PAC) (5). […] Samples (20 μl) were withdrawn at several hour intervals and analyzed directly by HPLC. […] (Suplecosil column); Elemental analysis calculated for C50 H55 NO16.H2O: C, 63.36%; H, 6.09%; N, 1.48%. […]

[2] = Stability of PAC and DAP CAC analogs in methanol at ambient temperature (HPLC decay curve); format: physicochemical
Method: During development of an HPLC method to purify 2′,7-bis-monochloroacetyl-10-deacetylpaclitaxel (2′,7-bis-CAC-DAP), the inventors discovered that the compound was unstable in methanol solution at a concentration of 1 mg/ml. […] Thus, we decided to further investigate the apparent differences in the stability of several PAC and DAP CAC esters relative to concentration and acidity.
Compound abbreviations are provided in FIG. 2-Table 1 according to the nomenclature and numbering specified in FIG. 1. RT=Retention times on an analytical HPLC (Waters) equipped with a reversed-phase column (Supleco Discovery C18) using a gradient elution (60% acetonitrile from 0-2 min., linearly ramped from 60% to 75% from 2-12 min., and held steady at 75% for the duration of the assay) at a flow rate of 1.2 ml/min. monitored by UV detection (225 nm). NMR (CDCl3) values for the C2′ proton shifts are in ppm relative to TMS. T1/2=Apparent half-lives. All compounds were independently prepared and characterized by HPLC, NMR and elemental analyses. ^†Previously reported by Rao et al. ^††Previously reported by Rimoldi et al.^21 *Less than 5% breakdown after 72 hr.
A 1 mg/ml solution of 2′,7-bis-CAC-DAP in methanol was allowed to stand at ambient temperature. 20 μl samples were withdrawn at T=0, 2, 24 and 48 hrs. Longer incubations were deployed for compounds showing little breakdown. Aliquots were assayed directly by HPLC after establishing that responses obtained for serial dilutions of a freshly prepared 10 mg/ml stock solution of 2′,7-bis-CAC-DAP were linear throughout the concentration range anticipated for the samples. A decay curve was generated by following the decrease in compound peak area versus time. An apparent half-life (T1/2) was then calculated from a semi-log plot using Microsoft Excel. The decay curve for 2′,7-bis-CAC-DAP appears to follow pseudo first-order kinetics typical for solvolysis reactions. The T1/2 value for conversion to 7-CAC-DAP is 5.5 hrs. The product growth curve matches very closely with the compound decay curve. Similar results were obtained for all of the other 2′-chloroacetylated derivatives listed in FIG. 2-Table 1 except for 2′ CAC-DAP whose T1/2 appears to be about three-times longer (18 hrs.). Nevertheless, this derivative is still much more labile than the chloroacetyl esters placed at either the 7- or 10-positions (T1/2 values all >>72 hrs.).
For the more concentrated experiments, a 10 mg/ml solution of 2′,7-bis-CAC-DAP was allowed to stand at ambient temperature. […] For the weakly acidic studies, less than 4% breakdown of 2′,7-bis-CAC-DAP was observed over 48 hrs. and the calculated T1/2 was determined to be >1,000 hrs. […]

## CC(=O)O[C@@]12CO[C@@H]1C[C@H](OC(=O)CCl)[C@@]1(C)C(=O)[C@H](O)C3=C(C)[C@@H](OC(=O)[C@H](OC(=O)CCl)[C@@H](NC(=O)c4ccccc4)c4ccccc4)C[C@@](O)([C@@H](OC(=O)c4ccccc4)[C@H]21)C3(C)C [2′,7-bis-CAC-DAP, 2′,7-bis-Monochloroacetyl-10-deacetylpaclitaxel]
[1]; 80% ethanol/20% water, 56° C., 24 hours
  Conversion (loss of 2′-acyl group): Approximately 50%
[1]; 80% ethanol/20% water, ambient temp., 22 hours
  Conversion (loss of 2′-acyl group): Approximately 20%
[1]; about 1 mg/mL in methanol, ambient temperature
  Time to complete methanolysis of the 2′-adduct: 48 h
[2]; 1 mg/ml in methanol with 0.2% acetic acid, over 48 hrs.
  Breakdown: less than 4%
[2]; 20 mg/ml, for preparative HPLC
  Solvolysis in more concentrated methanolic solution: did not appear to undergo solvolysis
[2]; concentration of 1 mg/ml
  Stability in methanol solution: unstable

## COCC(=O)O[C@H]1C[C@H]2OC[C@@]2(OC(C)=O)[C@H]2[C@H](OC(=O)c3ccccc3)[C@]3(O)C[C@H](OC(=O)[C@H](OC(=O)COC)[C@@H](NC(=O)c4ccccc4)c4ccccc4)C(C)=C([C@@H](OC(C)=O)C(=O)[C@]12C)C3(C)C [2′,7-bis-MAC-PAC]
[1]; 30 mg in 60 ml methanol, 47° C., within 7 hours
  Conversion (loss of 2′-acyl group): ~90%

## CC(=O)OC12COC1CC(OC(=O)CCl)C1(C)C(=O)C(O)C3=C(C)C(OC(=O)C(O)C(NC(=O)c4ccccc4)c4ccccc4)CC(O)(C(OC(=O)c4ccccc4)C21)C3(C)C (centres unmarked) [Compound 7-CAC-DAP, 7-Monochloroacetyl-10-deactylpaclitaxel]
[2]; methanol, studied for up to 120 hrs.
  Breakdown to DAP: no significant breakdown
